From US6531119B1, “Compositions with low irritancy” (priority 1998, dated 2003)

System: skin
Test: 21-Day Cumulative Irritation Test
Type: in vivo, human
Experimental: Each of the formulations of Examples 1-11 was evaluated for its tendency to cause skin erythema using the 21-Day Cumulative Irritation Test. In this test, 0.2 g of undiluted deodorant is applied daily for 21 days (excluding weekends) to the same 2-cm square patch of skin, which is occluded between applications. Each weekday during the test period, trained personnel grade the portion of skin where the test material is applied for signs of irritation and reapply the test material. Subjects fulfill specific inclusion criteria including not pregnant or breast feeding, over 18 years old, and without medical conditions which would interfere with the test. The grading system used is as follows:
0.5 Papular or papulovesicular response and/or dryness without erythema […]
The total score is calculated by summing each individual's score on the 21 days of the test. […] The normalized score is the total score divided by the total number of readings for all subjects and multiplied by 21 (the number of readings) and by 10 (to normalize to 10 subjects). Normalized scores are analyzed using ANOVA (analysis of variance technique described in Duncan, A. J., “Analysis of Variance”, Quality Control and Industrial Statistics (Irwin Publishers, Homewood, Ill. 1986) including the effects of subject and product. Product comparisons are made at the 5% level based on Fisher's least significant differences. […]

For `CCCCCCCCCCCCOS(=O)(=O)[O-].[Na+]` [Sodium Lauryl Sulfate], the “Normalized Score” value (0.2 g undiluted product applied daily for 21 days to same occluded 2-cm square skin patch, total score normalized to 21 readings and 10 subjects) was 431.8 and the “Irritation Classification” value (classification of the normalized score, 21-Day Cumulative Irritation Test) was “Moderate”.
